Results reported in patent US20100040598A1, “KIT OF PARTS COMPRISING AN ACID LABILE AND AN ACID RESISTANT PHARMACEUTICALLY ACTIVE INGREDIENT” (priority 2006, published 2010).
Like-named read-outs stand apart in the source and are kept apart here. One block for each molecule: values may come before it.

What was measured:
[1] = Crossover bioavailability study of tablet B before and tablet A after food intake vs both after food intake (Example 3); type: in vivo, human; conditions: data not shown
Description: In this study 20 subjects are randomized in balanced manner into 2 sequences. The subjects in the sequence 1 obtain tablet B under fasting conditions and then tablet A 30 minutes after beginning of food intake whereas the subjects in the second sequence are dosed with both tablets (A and B) 30 minutes after beginning of food intake. The extended release tablet A contains 1125 mg amoxicillin whereas tablet B is an immediate release formulation comprising 875 mg as amoxicillin trihydrate and 125 mg clavulanic acid as clavulanate potassium salt. The volunteers receive […] of non-carbonated water to each tablet administered.
The standardized breakfast (before or between the dosing) consists of 2 eggs fried in butter, 2 strips of bacon, 2 slices of toast with butter, 120 ml of hash brown potatoes and 240 ml of whole milk (3.5% fat).
(§1) Blood samples are taken before and 0.5, 1, 1.5, 2, 2.5, 3, 3.5, 4, 4.5, 5, 5.5, 6, 6.5, 7, 7.5, 8, 8.5, 9, 9.5, 10 and 12 hours after ingestion of the test tablet. Blood samples are centrifuged and stored at −80° C. Concentrations of both amoxicillin and clavulanic acid are determined according to known methods using a LC-MS/MS procedure (HPLC coupled Online with MS). Pharmacokinetic parameters are expressed as Cmax (maximal plasma concentration) and AUC0→∞ (area under the plasma concentration-time curve extrapolated to infinity) which are determined analogously as described above in comparative example A. Cmax is directly taken from the plasma-concentration-time curve. AUC0→∞ is calculated as follows: AUC0→∞=AUC0→tlast+AUCtlast→∞ wherein AUC0→tlast is the area under the plasma concentration-time curve from time of administration until time of last quantifiable concentration measured, i.e. Ct, and is calculated by using the linear trapezoid rule. AUCtlast→∞ is the extrapolated area to infinity that equals to Ct/Kel wherein Kel is the elimination rate constant.

[2] = Influence of food intake on absorption of clavulanic acid and amoxicillin (plasma pharmacokinetics after test tablet, Comparative Example A); type: in vivo, human; conditions: for AUC(0-inf) / Cmax / Tmax: human, plasma, oral, one test tablet
Description: An exploratory study involving 9 healthy volunteers receive the test product under fasted and fed conditions. The test product is AUGMENTIN™ XR as commercially available by Glaxosmithkline, and is an extended release tablet containing 1000 mg amoxicillin and 62.5 mg clavulanic acid wherein said tablet consists of a fast release layer comprising 562.5 mg as amoxicillin trihydrate and 62.5 mg clavulanic acid as clavulanate potassium salt, and of an extended release layer containing 437.5 mg amoxicillin as amoxicillin sodium salt. The test tablets are magnetically marked as described in Comparative Example B. The volunteers receive one test tablet together with 240 ml of non-carbonated water under the following conditions:
a) under fasting conditions: on one study day after a fasting period of at least 8 hours, b) at the beginning of a meal: on another study day after the first bite of a high […] standardized breakfast A, and c) under fed conditions: on still another study day 30 minutes after a high fat standardized breakfast B.
The standardized breakfast A consists of 2 slices of bread, 40 g cheese, 150 ml orange juice, 150 ml milk, and 20 g of cereals. The standardized breakfast B consists of 2 eggs fried in butter, 2 strips of bacon, 2 slices of toast with butter, 120 ml of hash brown potatoes and 240 ml of whole milk (3.5% fat).
as §1, with “plasma concentration),” for “plasma concentration) and”, “infinity) and tmax (time of peak plasma concentration). Cmax and tmax as figuring in Tables 1 and 2” for “infinity) which”, “determined from the 9 single values” for “determined analogously as described above in comparative example A. Cmax is”, “curve. […]” for “curve. AUC0→∞”, “constant. The results are reported using descriptive statistics.” for “constant.”
Tables 1 and 2 show the pharmacokinetic parameters of clavulanic acid and amoxicillin, respectively, determined in human plasma from the blood samples taken after administration of one test tablet under fasting or fed conditions or at the beginning of a meal (values are mean values of 9 volunteers).

[3] = More extensive study involving 70 volunteers with conventional test tablet without magnetic markers; type: in vivo, human; conditions: test tablet at the beginning of a meal, data not shown
Description: If a conventional combination of an acid labile active ingredient such as clavulanic acid and of an acid resistant active ingredient such as amoxicillin is administered according to a conventional scheme, namely both active ingredients simultaneously, concomitant food intake seems to strongly influence the plasma concentrations and thus bioavailability of the 2 active ingredients. This has been observed in the herein described exploratory study for a conventional combination in the form of a bilayer tablet comprising clavulanic acid for immediate release and amoxicillin for both immediate and extended release such as the herein described test tablet.

[4] = co-administered e.g. with sodium bicarbonate; compared to fasting; cited from earlier work

Plasma level of amoxicillin (duration) ([1]; condition a) vs condition b)): slightly prolonged
AUC of amoxicillin ([2]; fasting conditions compared with fed conditions): significantly reduced
Plasma concentrations of amoxicillin (FIG. 2): absorption ([2]; fed conditions compared with fasting conditions): delayed absorption
tmax of amoxicillin ([2]; fed conditions compared with fasting or beginning of a meal): significantly delayed
AUC(0-inf) ([2]; amoxicillin in human plasma, at the beginning of a meal, read-out: AUC0→∞, mean value ± s (converted)): 40.9 µg·h/mL
AUC(0-inf) ([2]; amoxicillin in human plasma, at the beginning of a meal, read-out: AUC0→∞, median (converted)): 39.1 µg·h/mL
Cmax ([2]; amoxicillin in human plasma, at the beginning of a meal, read-out: Cmax, mean value ± s): 10.4 ± 2 µg/mL
Cmax ([2]; amoxicillin in human plasma, at the beginning of a meal, read-out: Cmax, median): 9.87 µg/mL
Tmax ([2]; amoxicillin in human plasma, at the beginning of a meal, read-out: tmax, mean value ± s (converted)): ~1.38 h
Tmax ([2]; amoxicillin in human plasma, at the beginning of a meal, read-out: tmax, median (converted)): 1 h
AUC(0-inf) ([2]; amoxicillin in human plasma, fasting conditions, 9 volunteers, read-out: AUC0→∞, mean value ± s (converted)): 30.9 µg·h/mL
AUC(0-inf) ([2]; amoxicillin in human plasma, fasting conditions, read-out: AUC0→∞, median (converted)): 29 µg·h/mL
Cmax ([2]; amoxicillin in human plasma, fasting conditions, read-out: Cmax, mean value ± s): 10.3 ± 1.2 µg/mL
Cmax ([2]; amoxicillin in human plasma, fasting conditions, read-out: Cmax, median): 10.3 µg/mL
Tmax ([2]; amoxicillin in human plasma, fasting conditions, read-out: tmax, mean value ± s (converted)): ~1.5 h
Tmax ([2]; amoxicillin in human plasma, fasting conditions, read-out: tmax, median (converted)): 1.5 h
AUC(0-inf) ([2]; amoxicillin in human plasma, fed conditions (30 minutes after high fat breakfast), read-out: AUC0→∞, mean value ± s (converted)): 43.4 µg·h/mL
AUC(0-inf) ([2]; amoxicillin in human plasma, fed conditions, read-out: AUC0→∞, median (converted)): 42.1 µg·h/mL
Cmax ([2]; amoxicillin in human plasma, fed conditions, read-out: Cmax, mean value ± s): 9.88 ± 2.3 µg/mL
Cmax ([2]; amoxicillin in human plasma, fed conditions, read-out: Cmax, median): 9.83 µg/mL
Tmax ([2]; amoxicillin in human plasma, fed conditions, read-out: tmax, mean value ± s (converted)): 2.28 h
Tmax ([2]; amoxicillin in human plasma, fed conditions, read-out: tmax, median (converted)): 1.5 h
Maximum plasma concentrations Cmax of amoxicillin ([2]; test tablet after food intake compared with fasting): slightly lower
SMILES: CC1(C)S[C@@H]2[C@H](NC(=O)[C@H](N)c3ccc(O)cc3)C(=O)N2[C@H]1C(=O)O [amoxicillin]
Initial maximum plasma concentrations Cmax of amoxicillin ([1]; condition a) vs condition b)): higher initial maximum plasma concentrations
AUC of amoxicillin ([2]; at the beginning of a meal compared with fasting and fed state): lies in between that observed for the fasting and for the fed state

Bioavailability of clavulanic acid [3]: slightly decreased
Plasma concentrations of clavulanic acid ([1]; condition a) tablet B fasting, tablet A 30 minutes after beginning of food intake, vs b) both tablets 30 minutes after beginning of food intake): significantly higher
Cmax and AUC0→∞ of clavulanic acid ([1]; condition a) vs condition b)): significantly higher
Cmax and AUC of clavulanic acid ([2]; fed state compared with fasting conditions): significantly reduced
AUC(0-inf) ([2]; clavulanic acid in human plasma, at the beginning of a meal, read-out: AUC0→∞, mean value ± s (converted)): 3.28 µg·h/mL
AUC(0-inf) ([2]; clavulanic acid in human plasma, at the beginning of a meal, read-out: AUC0→∞, median (converted)): 2.88 µg·h/mL
Cmax ([2]; clavulanic acid in human plasma, at the beginning of a meal, read-out: Cmax, mean value ± s): 1.39 ± 0.4 µg/mL
Cmax ([2]; clavulanic acid in human plasma, at the beginning of a meal, read-out: Cmax, median): 1.24 µg/mL
Tmax ([2]; clavulanic acid in human plasma, at the beginning of a meal, read-out: tmax, mean value ± s (converted)): 1.38 h
Tmax ([2]; clavulanic acid in human plasma, at the beginning of a meal, read-out: tmax, median (converted)): 1.5 h
AUC(0-inf) ([2]; clavulanic acid in human plasma, fasting conditions, 9 volunteers, read-out: AUC0→∞, mean value ± s (converted)): 3.3 µg·h/mL
Cmax ([2]; clavulanic acid in human plasma, fasting conditions, 9 volunteers, read-out: Cmax, mean value ± s): 1.4 ± 0.4 µg/mL
Tmax ([2]; clavulanic acid in human plasma, fasting conditions, 9 volunteers, read-out: tmax, mean value ± s (converted)): ~1.5 h
AUC(0-inf) ([2]; clavulanic acid in human plasma, fasting conditions, read-out: AUC0→∞, median (converted)): 3.02 µg·h/mL
Cmax ([2]; clavulanic acid in human plasma, fasting conditions, read-out: Cmax, median): 1.35 µg/mL
Tmax ([2]; clavulanic acid in human plasma, fasting conditions, read-out: tmax, median (converted)): 1.5 h
AUC(0-inf) ([2]; clavulanic acid in human plasma, fed conditions (30 minutes after high fat breakfast), read-out: AUC0→∞, mean value ± s (converted)): 2.2 µg·h/mL
AUC(0-inf) ([2]; clavulanic acid in human plasma, fed conditions, read-out: AUC0→∞, median (converted)): 2.08 µg·h/mL
Cmax ([2]; clavulanic acid in human plasma, fed conditions, read-out: Cmax, mean value ± s): 0.97 ± 0.6 µg/mL
Cmax ([2]; clavulanic acid in human plasma, fed conditions, read-out: Cmax, median): 0.83 µg/mL
Tmax ([2]; clavulanic acid in human plasma, fed conditions, read-out: tmax, mean value ± s (converted)): 2.07 h
Tmax ([2]; clavulanic acid in human plasma, fed conditions, read-out: tmax, median (converted)): 2 h
Plasma concentrations of clavulanic acid (FIG. 1) ([2]; test tablet taken after a meal (breakfast B) compared with fasting): significantly reduced
SMILES: O=C(O)[C@H]1/C(=C/CO)O[C@@H]2CC(=O)N21 [clavulanic acid]

SMILES: COc1ccc2[nH]c([S+]([O-])Cc3ncc(C)c(OC)c3C)nc2c1 (stereo not shown) [omeprazole]
Bioavailability, effect of food ingestion [4]: reduces bioavailability
